# Assays:
# human PDE4 = assay: Human PDE4 assay (U937); format: biochemical; details: 10 μM concentration
# Experimental: (§1) All compounds were dissolved in dimethyl sulfoxide (DMSO). Final concentration of the DMSO in all tests was 1% (v/v). Inhibition in all tests is considered preferred if it exceeds 50% at 10 μM concentration (or less).
# (§2) PDE4 assay. PDE is implicated in diseases such as chronic obstructive pulmonary disease and neutrophilia. Human monocytic leukemia cell line U937 is pre-incubated at 25° C. in Tris-HCl buffer containing magnesium ions for 15 minutes. 1.01 μM tritium labeled cyclic adenosine monophosphate (cAMP) is added as substrate, followed by incubation at 25° C. for 20 minutes. Percentage of inhibition is calculated by comparing the adenosine levels in supernatant which is formed from cAMP in treated versus control cells.
# TxA2 receptor = biological target: T1, TxA2 receptor (Homo sapiens, UniProt P21731); assay: Human thromboxane A2, TxA2, assay (SQ-29548 competition); format: binding; details: 10 μM concentration; HEK-293
# T1 construct: expressed in transfected cells; host or cells: HEK-293
# T1 sequence (P21731 1-343): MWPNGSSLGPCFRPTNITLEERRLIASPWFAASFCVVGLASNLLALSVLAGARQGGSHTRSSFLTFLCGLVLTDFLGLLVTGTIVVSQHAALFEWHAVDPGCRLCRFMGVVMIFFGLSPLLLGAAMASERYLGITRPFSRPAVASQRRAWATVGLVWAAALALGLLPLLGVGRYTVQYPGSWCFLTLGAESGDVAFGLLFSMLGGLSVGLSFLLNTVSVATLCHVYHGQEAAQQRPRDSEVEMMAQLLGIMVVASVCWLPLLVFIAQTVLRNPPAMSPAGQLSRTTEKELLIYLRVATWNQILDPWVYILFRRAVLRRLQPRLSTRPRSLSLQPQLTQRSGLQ
# Experimental: as §1
# TxA2 receptor is expressed in HEK-293 cell line. Compounds and radiolabelled competitor SQ-29548 are incubated for 30 minutes at 25° C. Level of bound SQ-29548 is measured by scintillation counting, and competition is calculated from the total amount of the bound SQ-29548. […] is an unstable lipid mediator involved in blood clotting, and immune processes.
# human PDE3 = biological target: T2, human PDE3 (Homo sapiens, UniProt Q14432); assay: Human PDE3 assay (platelets); format: biochemical; details: 10 μM concentration
# T2 construct: Isolated human platelets are pre-incubated at 25° C; from tissue; host or cells: human platelets
# T2 sequence (Q14432 whole entry): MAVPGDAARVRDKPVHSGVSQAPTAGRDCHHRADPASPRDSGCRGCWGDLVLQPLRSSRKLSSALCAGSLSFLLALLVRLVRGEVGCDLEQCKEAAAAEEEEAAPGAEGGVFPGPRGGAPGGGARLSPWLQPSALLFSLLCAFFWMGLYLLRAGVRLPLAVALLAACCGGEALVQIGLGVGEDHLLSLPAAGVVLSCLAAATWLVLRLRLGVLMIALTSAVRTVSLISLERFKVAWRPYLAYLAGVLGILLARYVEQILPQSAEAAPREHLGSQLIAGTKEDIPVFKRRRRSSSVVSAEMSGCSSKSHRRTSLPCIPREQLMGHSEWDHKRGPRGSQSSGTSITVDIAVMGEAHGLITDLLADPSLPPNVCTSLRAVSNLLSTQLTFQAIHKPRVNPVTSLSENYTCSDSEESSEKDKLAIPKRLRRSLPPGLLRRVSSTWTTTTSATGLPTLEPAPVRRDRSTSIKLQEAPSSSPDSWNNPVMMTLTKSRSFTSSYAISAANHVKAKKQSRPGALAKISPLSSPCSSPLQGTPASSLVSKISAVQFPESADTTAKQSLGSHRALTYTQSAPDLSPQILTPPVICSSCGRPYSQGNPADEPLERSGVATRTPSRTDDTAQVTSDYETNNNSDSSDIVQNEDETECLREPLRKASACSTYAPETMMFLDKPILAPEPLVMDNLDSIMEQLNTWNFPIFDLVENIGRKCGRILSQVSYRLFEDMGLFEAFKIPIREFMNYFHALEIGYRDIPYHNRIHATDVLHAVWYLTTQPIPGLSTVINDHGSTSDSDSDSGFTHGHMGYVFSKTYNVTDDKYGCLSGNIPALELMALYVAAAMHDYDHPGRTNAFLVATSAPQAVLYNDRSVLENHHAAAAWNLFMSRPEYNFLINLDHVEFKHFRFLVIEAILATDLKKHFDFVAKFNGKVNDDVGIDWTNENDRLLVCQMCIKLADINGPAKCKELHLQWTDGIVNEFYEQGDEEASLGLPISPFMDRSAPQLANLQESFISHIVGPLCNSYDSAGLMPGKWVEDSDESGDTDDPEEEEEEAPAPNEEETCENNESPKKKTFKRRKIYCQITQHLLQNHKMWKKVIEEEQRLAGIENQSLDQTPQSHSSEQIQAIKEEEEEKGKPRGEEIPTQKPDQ
# Experimental: as §1
# as §2, with “PDE3” for “PDE4”, “Isolated human platelets are” for “PDE is implicated in diseases such as chronic obstructive pulmonary disease and neutrophilia. Human monocytic leukemia cell line U937 is”
# human 5-LO = biological target: T3, human 5-LO (Homo sapiens, UniProt P09917); assay: Human 5-Lipoxygenase, 5-LO, assay in peripheral mononuclear blood cells; format: cell-based; details: 10 μM concentration, LTB4 readout
# T3 construct: Human peripheral mononuclear blood cells were isolated using Ficoll density separation; endogenous in cells; host or cells: human peripheral blood mononuclear cells
# T3 sequence (P09917 1-674): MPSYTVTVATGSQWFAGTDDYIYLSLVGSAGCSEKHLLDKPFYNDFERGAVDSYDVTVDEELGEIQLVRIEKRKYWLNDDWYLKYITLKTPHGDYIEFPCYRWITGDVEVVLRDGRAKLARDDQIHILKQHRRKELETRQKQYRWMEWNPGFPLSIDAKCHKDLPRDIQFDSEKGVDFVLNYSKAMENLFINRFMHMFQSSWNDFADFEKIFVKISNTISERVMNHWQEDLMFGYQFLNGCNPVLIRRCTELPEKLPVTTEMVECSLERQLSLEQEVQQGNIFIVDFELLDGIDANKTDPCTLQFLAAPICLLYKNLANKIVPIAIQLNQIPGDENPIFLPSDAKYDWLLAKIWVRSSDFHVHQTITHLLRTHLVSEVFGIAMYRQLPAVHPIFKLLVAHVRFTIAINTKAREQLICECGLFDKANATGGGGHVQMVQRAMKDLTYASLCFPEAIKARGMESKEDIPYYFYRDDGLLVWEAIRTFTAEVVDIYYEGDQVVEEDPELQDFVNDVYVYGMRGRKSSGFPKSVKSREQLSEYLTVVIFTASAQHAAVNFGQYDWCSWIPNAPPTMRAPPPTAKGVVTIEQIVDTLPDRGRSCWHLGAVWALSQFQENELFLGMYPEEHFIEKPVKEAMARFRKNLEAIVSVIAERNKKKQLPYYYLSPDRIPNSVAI
# Experimental: as §1
# Human peripheral mononuclear blood cells were isolated using Ficoll density separation. Cells were incubated in Hanks Balanced Salt Solution (HBSS) with compounds for 15 minutes at 37° C. Substrate (arachidonic acid) was added in 20 μM final concentration and cells were incubated for another 15 minutes. LTB4 as a final product of arachidonic acid metabolism was measured using competitive enzyme immunoassay (See, e.g., Safayhi, H. et al. Planta Medica 2000, 66, 110-113) and percentage of inhibition was calculated from the levels of LTB4 in cell supernatant.
# CD1 mice = assay: PMA induced ear oedema in CD1 mice; format: in vivo, mouse; details: topical, single dose of 250 or 100 μg/15 μL/ear; statistically significant vs positive control
# Experimental: Male CD1 mice (Iffa Credo, France) weighing ˜35-40 g were randomly grouped (n=8 in vehicle treated test group, dexamethasone treated control group as well as in groups treated with compounds to be assayed). Test compounds, dexamethasone as well as vehicle (Trans-phase Delivery System, containing benzyl alcohol 10%, acetone 40% and isopropanol 50%) (all from Kemika, Croatia), were administered topically to the internal surface of the left ear thirty minutes prior to administration of phorbol 12-myristate 13-acetate (PMA) (Alexis biochemicals, USA). Test compounds were administered at a single dose of 250 or 100 μg/15 μL/ear and dexamethasone at a single dose of 50 μg/15 μL/ear. Thirty minutes later, 0.01% PMA solution in acetone was applied topically to the same area of each animal in a volume of 12 μL/ear. During the treatment and challenge, animals were anaesthetized by using inhalation anaesthesia. Six hours after the challenge, animals were euthanized by asphyxiation in 100% CO2 atmosphere. For assessing the auricular oedema, 8 mm discs were cut out of left and right auricular pinna and weighed. The degree of oedema was calculated by subtracting the weight of 8 mm disc of the untreated ear from that of the treated contralateral ear.
# CysLT1 receptor = biological target: T4, CysLT1 receptor (Homo sapiens, UniProt Q9Y271); assay: Human cysteinyl leukotriene receptor 1 (CysLT1) radioligand binding assay; details: 10 μM concentration; CHO-K1 cells
# T4 construct: expressed in transfected cells; host or cells: CHO-K1
# T4 sequence (Q9Y271 1-337): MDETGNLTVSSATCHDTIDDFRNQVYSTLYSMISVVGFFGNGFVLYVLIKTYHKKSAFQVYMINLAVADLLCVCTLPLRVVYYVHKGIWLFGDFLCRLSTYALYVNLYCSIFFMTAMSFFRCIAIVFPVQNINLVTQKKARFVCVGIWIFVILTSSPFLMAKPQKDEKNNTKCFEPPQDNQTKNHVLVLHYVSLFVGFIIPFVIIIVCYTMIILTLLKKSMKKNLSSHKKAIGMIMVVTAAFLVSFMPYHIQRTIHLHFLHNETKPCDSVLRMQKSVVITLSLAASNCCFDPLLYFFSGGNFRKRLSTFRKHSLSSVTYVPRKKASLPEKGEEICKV
# Experimental: as §1
# CysLT1 receptor is involved in immune diseases such as asthma, and has clinical significance as a point of intervention in asthma therapy. CysLT1 receptor is expressed in CHO-K1 cells (Chinese hamster ovary cells K1 clone). This is a competitive radioligand binding assay where substances compete with [^3H]-labeled Leulcotirene D4 (LTD4). Radioactive substance is measured with scintillation counting. Percentage of inhibition is calculated from the total radioactivity of the sample.
# [1] = tested on: Human prostanoid receptor; assay: Human prostanoid receptor assay ([3H]-PGD2 competition); format: binding; details: 10 μM concentration; CHO-K1
# Experimental: as §1
# Human prostanoid receptor is expressed in Chinese hamster ovary cell line, clone K1 (CHO-K1). Substances and radioactive competitor (tritium labelled Prostaglandin D2 in 1.7 nM concentration) are incubated with cells in HEPES buffer for 2 hours at 25° C. in the presence of manganese ions. Level of the bound PGD2 is measured by scintillation counting, and competition is calculated from comparing the total amount of the bound PGD2 in treated versus control cells. Prostanoids are involved in many physiological and pathological processes, from inflammation to pain.
# IL-5 = assay: Inhibition of IL-5 production by ConA stimulated mouse splenocytes; format: cell-based; details: 25 μM
# Experimental: Spleen cell suspension was obtained from BALB/c mice and lymphocytes separated by gradient density centrifugation on Histopaque 1.083 on 400 g for 30 minutes. They were washed once in medium, counted and their number adjusted as 3×10^5/200 μL/well in 96 flat bottomed culture plate in RPMI supplemented with 10% fetal bovine serum. Cells were stimulated on cytokine production by adding concanavalinA (ConA) at 5 μg/mL final concentration. Unstimulated cells were cultured in medium alone. Stock solution was prepared out of testing compounds as 10 mM in DMSO. Final concentrations made in cell culture medium were tested when they had been added together with ConA. After 72 hours incubation period cell culture supernatants were collected. In each sample IL-4, IL-5, IL-10 and IFNγ were detected and quantified using enzyme linked immunosorbent assay (ELISA) specific for pointed cytokines (R&D Systems).
# To calculate results, standard curve was made out of measured OD values for recombinant protein in known concentrations. Cytokine content in unknown samples was calculated out of OD values extrapolated from the standard curve.
# Percentage of inhibition is calculated using formula:
# % Inhibition=(1−cytokine concentration of sample/cytokine concentration of positive control)×100.
smiles,measurement,setting,value
CCc1cccc2c(O)c(C(C(C)=O)c3c(O)c4cccc(CC)c4oc3=O)c(=O)oc12 [Example 17],inhibition of human PDE4 activity,human PDE4,significantly inhibited
same,"TxA2 receptor, competition with SQ-29548",TxA2 receptor,significantly relevant activity
same,inhibition of human PDE3 activity,human PDE3,significantly inhibited
same,inhibition of human 5-LO,human 5-LO,significantly relevant activity
CC(=O)C(c1c(O)c2cc(Cl)c(C)cc2oc1=O)c1c(O)c2cc(Cl)c(C)cc2oc1=O [Example 25],suppression of ear oedema,CD1 mice,considered active
CCc1ccc2oc(=O)c(C(C(C)=O)c3c(O)c4cc(CC)ccc4oc3=O)c(O)c2c1 [Example 26],suppression of ear oedema,CD1 mice,considered active
Cc1cc2oc(=O)c(C(CO)c3c(O)c4cc(C)c(C)cc4oc3=O)c(O)c2cc1C [Example 28],suppression of ear oedema,CD1 mice,considered active
CCc1ccc2oc(=O)c(C(CO)c3c(O)c4cc(CC)ccc4oc3=O)c(O)c2c1 [Example 29],suppression of ear oedema,CD1 mice,considered active
Cc1cc2oc(=O)c(C(C(=O)OCCO)c3c(O)c4cc(C)c(C)cc4oc3=O)c(O)c2cc1C [Example 51],suppression of ear oedema,CD1 mice,considered active
Cc1cc2oc(=O)c(C(C(=O)OCCO)c3c(O)c4cc(Cl)c(C)cc4oc3=O)c(O)c2cc1Cl [Example 54],suppression of ear oedema,CD1 mice,considered active
O=c1oc2ccccc2c(O)c1C(c1cccc(Cl)c1)c1c(O)c2ccccc2oc1=O [Example 66],suppression of ear oedema,CD1 mice,considered active
CCOC(=O)C(c1c(O)c2cccc(C(C)C)c2oc1=O)c1c(O)c2cccc(C(C)C)c2oc1=O [Example 292],suppression of ear oedema,CD1 mice,considered active
O=c1oc2ccccc2c(O)c1C(c1ccc2c(c1)OCO2)c1c(O)c2ccccc2oc1=O [Example 349],"TxA2 receptor, competition with SQ-29548",TxA2 receptor,significantly relevant activity
same,"CysLT1 receptor, competition with [3H]-LTD4",CysLT1 receptor,significantly relevant activity
same,suppression of ear oedema,CD1 mice,considered active
same,inhibition of human 5-LO,human 5-LO,significantly relevant activity
O=c1oc2ccccc2c(O)c1C(c1cnc2ccccc2c1)c1c(O)c2ccccc2oc1=O [Example 351],"human prostanoid receptor, competition with tritium labelled PGD2",[1],significantly relevant activity
same,inhibition of human PDE4 activity,human PDE4,significantly inhibited
same,"CysLT1 receptor, competition with [3H]-LTD4",CysLT1 receptor,significantly relevant activity
same,inhibition of human PDE3 activity,human PDE3,significantly inhibited
same,suppression of ear oedema,CD1 mice,considered active
same,inhibition of human 5-LO,human 5-LO,significantly relevant activity
CC(C)c1cccc2c(O)c(C(c3c(O)c4cccc(C(C)C)c4oc3=O)C(C)O)c(=O)oc12 (stereo not drawn) [Example 364],suppression of ear oedema,CD1 mice,considered active
same,inhibition of IL-5 production,IL-5,significantly inhibited

# From patent US20080153872A1, “Bis-(Coumarin) Compounds With Anti-Inflammatory Activity” (priority 2005, published 2008)
